Laboratory results as given in patent US20170029451A1, “BRANCHED CHAIN ACYCLIC NUCLEOSIDE PHOSPHONATE ESTERS AND METHODS OF SYNTHESIS AND USES THEREOF” (CHIMERIX, INC., priority 2013, published 2017).

Assays:
[1] = system: HCMV UL54 resistant mutant GDG^RP53; experiment: microbe, parasite or virus in culture; type: cell-based, Human Cytomegalovirus (HCMV); details: Human betaherpesvirus 5, Fibroblast
Epstein-Barr virus = experiment: DNA Hybridization Assay for EBV in Akata cells; type: cell-based; details: human gammaherpesvirus 4, read-out: Efficacy DNA Hybridization Assay (EC50)
Experimental: Akata cells latently infected with EBV were obtained from John Sixbey. The GS strain of HHV-6A was obtained through the NIH AIDS Research and Reference Reagent Program.
Each experiment that evaluated the antiviral activity of the compounds included both positive and negative control compounds to ensure the performance of each assay. Concurrent assessment of cytotoxicity was also performed for each study at equivalent levels of compound exposure. When sufficient material was available, multiple assays were performed for each compound evaluation to obtain statistical data.
Assays for EBV were performed in Akata cells that were induced to undergo a lytic infection with 50 μg/ml of a goat anti-human IgG antibody by standard methods. Experimental compounds were diluted in round bottom 96-well plates to yield concentrations ranging from 20 to 0.016 μM. Akata cells were added to the plates at a concentration of 4×10^4 cells per well and incubated for 72 h. For HHV-6 assays, compounds were serially diluted in 96-well plates then 1×10^4 uninfected HSB-2 or Molt-3 cells were added to each well. Infection was initiated by adding HHV-6A infected HSB-2 cells, or HHV-6B infected Molt-3 cells, at a ratio of approximately 1 infected cell for every 10 uninfected HSB-2 cells or Molt-3 cells respectively and incubated for 7 d at 37° C. […]

[2] = system: HCMV UL54 resistant mutant 4955^R; experiment: microbe, parasite or virus in culture; type: cell-based, Human Cytomegalovirus (HCMV); details: Human betaherpesvirus 5, Fibroblast
[3] = system: Herpes Simplex Virus 1 (Strain E-377); experiment: Plaque reduction assay, HSV-1 in human foreskin fibroblast cells; type: cell-based; details: Human alphaherpesvirus 1; Strain E-377, human foreskin fibroblast cells
Poliovirus 3 = experiment: microbe, parasite or virus in culture; type: cell-based; details: Enterovirus C, Vero 76
[4] = Cytotoxicity (CC50) in MRC-5 cells; type: cell-based; details: human, cell line MRC5 (HCMV row)
Experimental: Costar 96-well tissue culture plates were seeded with 20,000 MRC-5 cells (ATCC)/well in EMEM (ATCC, Cat 30-2003) containing 2% Hyclone Standard Fetal Bovine Serum (FBS, Cat 5H30088.03) and 1% Hyclone Penicillin and Streptomycin (Cat SV30010). Outer wells were not used to minimize the edge-effect produced by extended incubations. Serial dilutions of test compounds were added to the cells and plates were incubated for 7 days at 37° C. in 5% CO2. After 7 days of incubation 40 μL of Cell Titer 96® Aqueous MTS Reagent (Promega, G111) was added as directed by manufacturer to the 200 iut media in each well and incubated at 37° C. until the untreated-cell controls developed an 490 nm absorbance between 1.1 and 1.8. The final absorbance readings were read using a BioTek Synergy 2, and Gen 5 software (BioTek Instruments, Inc.) was used to calculate the concentration which inhibited MRC-5 cells by 50% (CC50).

[5] = Cytotoxicity in MEF cells; type: cell-based; details: mouse, cell line MEF (MCMV row)
in vitro = details: human

## CC(C)CCCCCCCCCCCCCCOCCCOP(=O)(O)COC(CO)Cn1ccc(=O)[nH]c1=O (stereo not drawn) [Compound 12]
[1]; read-out: EC50 μM, Virus GDG^RP53, human foreskin fibroblast cells
  EC50: ~0.171 µM
[1]; read-out: EC90 μM
  EC90: 1.55 µM
Epstein-Barr virus
  EC50: > 10 µM
[2]; read-out: EC50 μM, Virus 4955^R, human foreskin fibroblast cells
  EC50: ~0.143 µM
[2]; read-out: EC90 μM
  EC90: 0.372 µM
[3]
  EC50: > 50 µM
Poliovirus 3
  EC50: 3.3 µM
[4]
  CC50 at 7 days: 50 µM
[5]
  CC50: 60 µM
In vitro; CPXV CC50, μM, Human Foreskin Fibroblast Cells, parallel to CPXV assay
  CC50: > 10 µM
In vitro; HCMV CC50, μM
  CC50: > 50 µM
In vitro; HSV-1 CC50, μM
  CC50: > 50 µM
